Columns and labels:
MKL-2 cells (VP-MCC) [1] = assay: qHTS cell viability (CellTiter-Glo, 72 h; primary and follow-up small molecule screen); assay type: cell-based, human
HEK293T cells = assay: qHTS cell viability (CellTiter-Glo, 72 h; primary screen), control cell line; assay type: cell-based, human
NIH-3T3 cells = assay: as above; assay type: cell-based, mouse
[2] = tested on: six MCC cell lines and four control cell lines; assay: qHTS cell viability, all 10 cell lines screened; assay type: cell-based
HACAT cells = assay: qHTS cell viability (CellTiter-Glo, 72 h; primary screen), control cell line; assay type: cell-based, human
MCC26 cells (VN-MCC) [3] = assay: qHTS cell viability (CellTiter-Glo, 72 h; primary and follow-up small molecule screen); assay type: cell-based, human
CRL-7250 cells = assay: qHTS cell viability (CellTiter-Glo, 72 h; primary screen), control cell line; assay type: cell-based
[4] = tested on: control cell lines (HACAT, HEK293T, CRL-7250, NIH-3T3); assay: qHTS cell viability, control cell lines as a group (mean AUC, Control.avg); assay type: cell-based
[5] = tested on: VP-MCC cell lines (WAGA, MKL-1, MKL-2); assay: qHTS cell viability, VP-MCC cell lines as a group (mean AUC, VP.MCC.avg); assay type: cell-based, human
[6] = tested on: MCC cell lines (WAGA, MKL-1, MKL-2, MCC13, MCC26, UISO); assay: qHTS cell viability, all six MCC cell lines as a group (mean AUC, MCC.avg); assay type: cell-based, human
MCC13 cells (VN-MCC) = assay: qHTS cell viability (CellTiter-Glo, 72 h; primary and follow-up small molecule screen); assay type: cell-based, human
UISO cells (VN-MCC) = assay: as above; assay type: cell-based, human
MKL-1 cells (VP-MCC) = assay: as above; assay type: cell-based, human
WAGA cells (VP-MCC) = assay: as above; assay type: cell-based, human
[7] = tested on: VN-MCC cell lines (MCC13, MCC26, UISO); assay: qHTS cell viability, VN-MCC cell lines as a group (mean AUC, VN.MCC.avg); assay type: cell-based, human
MCC26 cells (VN-MCC) [8] = assay type: cell-based, human
Description: (§1) A non-targeting control (Silencer Select Negative Control No. 2 siRNA) and a positive control (AllStars Cell Death Control siRNA) were used as controls. Lipofectamine RNAiMax (Thermo Fisher Scientific, Grand Island, NY) was obtained as the transfection reagent. […] Three siRNAs per gene were arrayed in 384 well plates, one siRNA per well. […] Cell viability was measured by CellTiter-Glo assay following the manufacturer's instructions (G7572; Promega, Madison, WI, USA) 96 h after siRNA transfection. Assay plates were measured using BMG Pherastar plate reader Three different siRNAs (sequences: [NT], and [NT] targeting INCENP as well as negative non-targeting siRNA control were purchased from Thermo Fisher Scientific (Grand Island, NY).

MKL-2 cells (VP-MCC) [9] = assay type: cell-based, human
Description: as §1

Molecule	MKL2_AUC (MKL-2 cells (VP-MCC) [1])	HEK293T_AUC (HEK293T cells)	NIH3T3_AUC (NIH-3T3 cells)	Control-MCC [2]	HACAT_AUC (HACAT cells)	MCC26_AUC (MCC26 cells (VN-MCC) [3])	CRL7250_AUC (CRL-7250 cells)	Control_Avg_AUC [4]	Control-VP-MCC [5]	VP-MCC_Avg_AUC [5]	MCC_Avg_AUC [6]	MCC13_AUC (MCC13 cells (VN-MCC))	UISO_AUC (UISO cells (VN-MCC))	MKL1_AUC (MKL-1 cells (VP-MCC))	WAGA_AUC (WAGA cells (VP-MCC))	Control-VN-MCC [7]	VN-MCC_Avg_AUC [7]	Percent viability (MCC26 cells (VN-MCC) [8]) [%]	Percent viability (MKL-2 cells (VP-MCC) [9]) [%]
CCOc1cc(N2CCC(O)CC2)ccc1Nc1ncc2c(n1)N(C)c1ccccc1C(=O)N2C [XMD8-92]	364.829	449.91	462.049	31.2771	464.723	462.249	459.588	459.068	68.2382	390.829	427.79	476.46	455.545	404.412	403.248	-5.684	464.751	–	–
AAAUGUUGAUCUCCUUUCC (chemistry not given here)	–	–	–	–	–	–	–	–	–	–	–	–	–	–	–	–	–	97.2	84.7
AGAUCAACCCAGAUAACUAtt (AGAUCAACCCAGAUAACUATT; chemistry not given here)	–	–	–	–	–	–	–	–	–	–	–	–	–	–	–	–	–	73.1	48.5
